Data published in patent US6420397B1, “Heteroaryl protease inhibitors and diagnostic imaging agents” (3-Dimensional Pharmaceuticals, Inc., priority 1999, dated 2002).

Assays:
Human α-thrombin = biological target: T1, Human α-thrombin (Homo sapiens, UniProt P00734); assay: In vitro inhibition of purified enzymes: thrombin Ki determination (p-nitroanilide substrate hydrolysis); assay type: biochemical; settings: substrate N-succinyl-Ala-Ala-Pro-Arg-p-nitroanilide, 37° C., pH 7.5
T1 construct: Purified human α-thrombin was diluted into assay buffer; purchased Enzyme Research Laboratories (South Bend, Indiana)
Text: (§1) Reagents: All buffer salts were obtained from Sigma Chemical Company (St. Louis, Mo.), and were of the highest purity available. The enzyme substrate N-benzoyl-Ile-Glu-Gly-Arg-p-nitroanilide hydrochloride (Sigma B2291) was obtained from Sigma. N-succinyl-Ala-Ala-Pro-Arg-p-nitroanilide (BACHEM L-1720) was obtained from BACHEM (King of Prussia, Pa.). Human α-thrombin and human factor Xa were obtained from Enzyme Research Laboratories (South Bend, Indiana).
Ki Determinations: All assays are based on the ability of the test compound to inhibit the enzyme catalyzed hydrolysis of a peptide p-nitroanilide substrate. In a typical Ki determination, substrate is prepared in DMSO, and diluted into an assay buffer consisting of 50 mM HEPES, 200 mM NaCl, pH 7.5. The final concentrations for each of the substrates is listed below. In general, substrate concentrations are lower than the experimentally determined value for Km. Test compounds are prepared as a 1.0 mg/ml solution in DMSO. Dilutions are prepared in DMSO yielding 8 final concentrations encompassing a 200 fold concentration range. Enzyme solutions are prepared at the concentrations listed below in assay buffer.
(§2) In a typical Ki determnination, into each well of a 96 well plate is pipetted […] of substrate solution, […] of test compound solution, and the plate allowed to thermally equilibrate at 37° C. in a Molecular Devices plate reader for >15 minutes. Reactions were initiated by the addition of a […] aliquot of enzyme and the absorbance increase at 405 nm is recorded for 15 minutes. Data corresponding to less than 10% of the total substrate hydrolysis were used in the calculations. The ratio of the velocity (rate of change in absorbance as a function of time) for a sample containing no test compound is divided by the velocity of a sample containing test compound, and is plotted as a function of test compound concentration. The data are fit to a linear regression, and the value of the slope of the line calculated. The inverse of the slope is the experimentally determined Ki value.
Thrombin: Thrombin activity was assessed as the ability to hydrolyze the substrate N-succinyl-Ala-Ala-Pro-Arg-p-nitroanilide. Substrate solutions were prepared at a concentration of […] in assay buffer. Final DMSO concentration was 4.3%. Purified human α-thrombin was diluted into assay buffer to a concentration of 15 nM. Final reagent concentrations were: [thrombin]=0.5 nM, [substrate N-succinyl-Ala-Ala-Pro-Arg-p-nitroanilide]=32 mM.

human factor Xa = biological target: T2, human factor Xa (Homo sapiens, UniProt P00742); assay: In vitro inhibition of purified enzymes: Factor Xa (p-nitroanilide substrate hydrolysis); assay type: biochemical; settings: read-out: Factor Xa % inhibition @ conc.
T2 construct: purchased Enzyme Research Laboratories (South Bend, Indiana)
Text: as §1
Ki Determinations: All assays are based on the ability of the test compound to inhibit the enzyme catalyzed hydrolysis of a peptide p-nitroanilide substrate. […] In general, substrate concentrations are lower than the experimentally determined value for Km. […]
as §2, with “Data corresponding to less than 10% of the total substrate hydrolysis were used in the calculations.” left out, “The data are fit to a linear regression, and the value of the slope of the line calculated. The inverse of the slope is the experimentally determined Ki value.” left out

T2 sequence (P00742 235-488 limits assumed): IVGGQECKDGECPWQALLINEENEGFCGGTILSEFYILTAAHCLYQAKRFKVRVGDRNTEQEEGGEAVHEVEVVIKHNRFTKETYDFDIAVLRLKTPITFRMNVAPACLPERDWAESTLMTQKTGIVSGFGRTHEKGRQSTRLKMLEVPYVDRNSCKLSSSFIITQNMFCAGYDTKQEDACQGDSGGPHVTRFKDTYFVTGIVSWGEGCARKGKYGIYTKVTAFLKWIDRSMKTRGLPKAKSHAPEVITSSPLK
T2 sequence (P00742 41-179 limits assumed): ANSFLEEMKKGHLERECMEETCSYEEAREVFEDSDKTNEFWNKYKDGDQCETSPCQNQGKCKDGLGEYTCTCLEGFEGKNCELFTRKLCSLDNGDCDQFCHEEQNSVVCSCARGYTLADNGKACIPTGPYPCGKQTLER

| Structure (SMILES) | Ki (Human α-thrombin) [nM] | inhibition at 20 µM (human factor Xa; @ 20 μM) [%] | inhibition at 13 µM (human factor Xa; @ 13 μM) [%] |
| --- | --- | --- | --- |
| Cc1ccc(NS(=O)(=O)Cc2ccccc2I)c(=O)n1CC(=O)N[C@@H](CCONC(=N)N)C(=O)c1nccs1 [Example 1, N-{(1S)-1-[2-(Amidinoaminooxy)ethyl]-2-oxo-2-(1,3-thiazol-2-yl)ethyl}-2-[3-({[(2-iodophenyl)methyl]sulfonyl}amino)-6-methyl-2-oxohydropyridyl]acetamide] | 14 | 16 |  |
| Cc1ccc(NS(=O)(=O)Cc2ccccc2I)c(=O)n1CC(=O)N[C@@H](CCONC(=N)N)C(=O)c1nc2ccccc2s1 [Example 2, N-{(1S)-1-[2-(Amidinoaminooxy)ethyl]-2-benzothiazol-2-yl-2-oxoethyl}-2-[3-({[(2-iodophenyl)methyl]sulfonyl}amino)-6-methyl-2-oxohydropyridyl]acetamide] | 75 |  | 51 |
| Cc1ccc(NS(=O)(=O)c2cccc(I)c2)c(=O)n1CC(=O)N[C@@H](CCONC(=N)N)C(=O)c1nccs1 [Example 3, N-{(1S)-1-[2-(Amidinoaminooxy)ethyl]-2-oxo-2-(1,3-thiazol-2-yl)ethyl}-2-(3-{[(3-iodophettyl)sulfonyl]amino}-6-methyl-2-oxohydropyridyl)acetamide] | 45 |  |  |
| Cc1ccc(NS(=O)(=O)c2cccc(I)c2)c(=O)n1CC(=O)N[C@@H](CCONC(=N)N)C(=O)c1nc2ccccc2s1 [Example 4, N-{(1S)-1-[2-(Amidinoaminooxy)ethyl]-2-benzothiazol-2-yl-2-oxoethyl}-2-(3-{[(3-iodopheityl)sulfonyl]amino}-6-methyl-2-oxohydropyridyl)acetamide] | 17 |  |  |
